Data taken from US20080026996A1, “Selective Vpac2 Receptor Reptide Agonists” (ELI LILLY AND COMPANY, priority 2004, published 2008).
Where two headings read alike, the source gives them in different places. Where a SMILES comes first, the peptide text is derived from it. Where no end group is shown, it is not given here. [ ]: non-standard residue; d: D form. The star is where a group is joined. Met(O) = CS(=O)CC[C@H](N)C(=O)O; Hexanoyl = CCCCCC(=O)*

Tests used:
[1] = target: T1, human PAC1 (Homo sapiens, UniProt P41586); experiment: Filter binding assay, membranes of cells transiently transfected with human PAC1, 125I-labeled PACAP-27 tracer (Table 2); design: expressed in transfected cells
T1 sequence (P41586 21-468): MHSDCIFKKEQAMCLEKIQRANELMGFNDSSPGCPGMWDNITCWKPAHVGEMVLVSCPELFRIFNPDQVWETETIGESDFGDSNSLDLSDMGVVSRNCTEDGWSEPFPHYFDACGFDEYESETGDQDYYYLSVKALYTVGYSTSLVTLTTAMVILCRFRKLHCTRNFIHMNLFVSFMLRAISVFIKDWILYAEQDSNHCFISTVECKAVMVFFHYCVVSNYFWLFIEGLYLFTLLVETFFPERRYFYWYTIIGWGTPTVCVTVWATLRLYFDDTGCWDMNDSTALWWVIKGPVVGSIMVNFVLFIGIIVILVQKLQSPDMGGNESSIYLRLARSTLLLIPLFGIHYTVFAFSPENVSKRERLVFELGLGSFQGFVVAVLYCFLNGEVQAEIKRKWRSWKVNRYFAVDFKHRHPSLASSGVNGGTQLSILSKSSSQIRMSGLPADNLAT
Protocol: (§1) For this assay, the solutions and equipment include:
(§2) Presoak solution: 0.5% Polyethyleneamine in Aqua dest.
(§3) Buffer for flushing filter plates: 25 mM HEPES pH 7.4
(§4) Blocking buffer: 25 mM HEPES pH 7.4; 0.2% protease free BSA
(§5) Assay buffer: 25 mM HEPES pH 7.4; 0.5% protease free BSA
(§6) Dilution and assay plate: PS-Microplate, U form
(§7) Filtration Plate Multiscreen FB Opaque Plate; […] Type B Glasfiber filter
(§8) In order to prepare the filter plates, aspirate the presoak solution by vacuum filtration. Flush the plates twice with 200 μL flush buffer. Add 200 μL blocking buffer to the filter plate. The filter plate is then incubated […] for 1 hour at room temperature.
(§9) Fill the assay plate with 25 μL assay buffer, 25 μL membranes (2.5 μg) suspended in assay buffer, 25 μL compound (agonist) in assay buffer, and 25 μL tracer (about 40000 cpm) in assay buffer. Incubate the filled plate for 1 hour with shaking.
(§10) Conduct the transfer from assay plate to filter plate. Aspirate the blocking buffer by vacuum filtration and wash two times with flush buffer. Transfer 90 μL from the assay plate to the filter plate. Aspirate the 90 μL transferred from assay plate and wash three times with 200 μL flush buffer. Remove the plastic support. Dry for 1 hour at 60° C. Add 30 μL Microscint. Perform the count.

[2] = target: T2, human VPAC2 (Homo sapiens, UniProt P41587); experiment: Filter binding assay, membranes of stable VPAC2 cell line, 125I-labeled VIP tracer (Table 2)
T2 construct: expressed in transfected cells
T2 sequence (P41587 24-438): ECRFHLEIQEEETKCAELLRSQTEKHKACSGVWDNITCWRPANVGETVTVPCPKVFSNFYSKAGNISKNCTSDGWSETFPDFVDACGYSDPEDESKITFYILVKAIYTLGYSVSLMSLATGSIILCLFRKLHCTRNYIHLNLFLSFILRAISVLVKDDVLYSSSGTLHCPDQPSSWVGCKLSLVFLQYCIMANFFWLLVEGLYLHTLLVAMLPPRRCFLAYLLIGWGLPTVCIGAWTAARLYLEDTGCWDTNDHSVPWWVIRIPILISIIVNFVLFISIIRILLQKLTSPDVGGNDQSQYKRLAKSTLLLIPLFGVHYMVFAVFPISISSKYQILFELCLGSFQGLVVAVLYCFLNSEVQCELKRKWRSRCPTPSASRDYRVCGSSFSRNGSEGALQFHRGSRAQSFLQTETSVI
Protocol: as §1, §2, §3, §4, §5, §6, §7, §8, §9, §10

[3] = target: T3, human VPAC1 (Homo sapiens, UniProt P32241); experiment: Filter binding assay, membranes of cells transiently transfected with human VPAC1, 125I-labeled VIP tracer (Table 2); design: expressed in transfected cells
T3 sequence (P32241 31-457): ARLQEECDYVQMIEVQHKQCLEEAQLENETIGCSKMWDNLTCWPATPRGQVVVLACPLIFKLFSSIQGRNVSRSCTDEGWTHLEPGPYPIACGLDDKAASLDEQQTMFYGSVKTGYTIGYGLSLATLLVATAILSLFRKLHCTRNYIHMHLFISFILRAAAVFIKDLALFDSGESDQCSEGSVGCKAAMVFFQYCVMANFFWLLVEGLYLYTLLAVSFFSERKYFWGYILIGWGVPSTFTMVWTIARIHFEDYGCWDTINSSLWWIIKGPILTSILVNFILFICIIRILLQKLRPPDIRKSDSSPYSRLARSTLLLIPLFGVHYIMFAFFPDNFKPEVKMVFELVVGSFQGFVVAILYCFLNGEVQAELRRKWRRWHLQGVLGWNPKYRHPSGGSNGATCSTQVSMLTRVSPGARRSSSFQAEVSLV
Protocol: as §1, §2, §3, §4, §5, §6, §7, §8, §9, §10

[4] = target: T2, human VPAC2; experiment: Alpha screen cAMP in vitro potency, human VPAC2 receptor; assay type: cell-based; conditions: cAMP generation; single result from two analyses performed in a single run; read-out: Human VPAC2 Receptor: Alpha Screen EC50
Protocol: Alpha screen: Cells are washed in the culture flask once with PBS. Then, the cells are rinsed with enzyme free dissociation buffer. The dissociated cells are removed. The cells are then spun down and washed in stimulation buffer. For each data point, 50,000 cells suspended in stimulation buffer are used. To this buffer, Alpha screen acceptor beads are added along with the stimuli. This mixture is incubated for 60 minutes. Lysis buffer and Alpha screen donor beads are added and are incubated for 60 to 120 minutes. The Alpha screen signal (indicative of intracellular cAMP levels) is read in a suitable instrument (e.g. AlphaQuest from Perkin-Elmer). Steps including Alpha screen donor and acceptor beads are performed in reduced light.

[5] = read-out: Human PAC1 Receptor Binding
[6] = read-out: Human VPAC2 Receptor Binding
[7] = read-out: Human VPAC1 Receptor Binding

Row | Molecule | IC50 [1, 5] [nM] | IC50 [2, 6] [nM] | IC50 [3, 7] [nM] | EC50 [4] [nM] | IC50 [1] [nM] | IC50 [2] [nM] | IC50 [3] [nM]
1 | Hexanoyl-HSDAVFTDNYTRLRKQVAAKKWLQSIKNKRYGGPSSGAPPPS [Agonist P129] | 678 | 0.38 | 462 | 0.49 |  |  | 
2 | CCCCCC(=O)N[C@@H](Cc1c[nH]cn1)C(=O)N[C@@H](CO)C(=O)N[C@@H](CC(=O)O)C(=O)N[C@@H](C)C(=O)N[C@H](C(=O)N[C@@H](Cc1ccccc1)C(=O)N[C@H](C(=O)N[C@@H](CC(=O)O)C(=O)N[C@@H](CC(N)=O)C(=O)N[C@@H](Cc1ccc(O)cc1)C(=O)N[C@H](C(=O)N[C@@H](CCCNC(=N)N)C(=O)N[C@@H](CC(C)C)C(=O)N[C@@H](CCCNC(=N)N)C(=O)N[C@@H](CCCCN)C(=O)N[C@@H](CCC(N)=O)C(=O)N[C@H](C(=O)N[C@@H](C)C(=O)N[C@@H](C)C(=O)N[C@@H](CCCCN)C(=O)N[C@@H](CCCCN)C(=O)N[C@@H](Cc1ccc(O)cc1)C(=O)N[C@@H](CC(C)C)C(=O)N[C@@H](CCC(N)=O)C(=O)N[C@@H](CO)C(=O)N[C@H](C(=O)N[C@@H](CCCCN)C(=O)N[C@@H](CC(N)=O)C(=O)NCC(=O)NCC(=O)N1CCC[C@H]1C(=O)N[C@@H](CO)C(=O)N[C@@H](CO)C(=O)NCC(=O)N[C@@H](C)C(=O)N1CCC[C@H]1C(=O)N1CCC[C@H]1C(=O)N1CCC[C@H]1C(=O)N[C@@H](CO)C(=O)O)[C@@H](C)CC)C(C)C)[C@@H](C)O)[C@@H](C)O)C(C)C [Agonist P154] (Hexanoyl-HSDAVFTDNYTRLRKQVAAKKYLQSIKNGGPSSGAPPPS-OH; C-terminus assumed) | 1960 | 0.31 | 141 | 0.18 |  |  | 
3 | IHSDAVFTDNYTRLRKQVAAKKYLQSIKNKRYGGPSSGAPPPS [Agonist P105] |  |  |  |  | 127 | 5.41 | 263
4 | CCCCCC(=O)N[C@@H](Cc1c[nH]cn1)C(=O)N[C@@H](CO)C(=O)N[C@@H](CC(=O)O)C(=O)N[C@@H](C)C(=O)N[C@H](C(=O)N[C@@H](Cc1ccccc1)C(=O)N[C@H](C(=O)N[C@@H](CC(=O)O)C(=O)N[C@@H](CC(N)=O)C(=O)N[C@@H](Cc1ccc(O)cc1)C(=O)N[C@H](C(=O)N[C@@H](CCCNC(=N)N)C(=O)N[C@@H](CC(C)C)C(=O)N[C@@H](CCCNC(=N)N)C(=O)N[C@@H](CCCCN)C(=O)N[C@@H](CCC(N)=O)C(=O)N[C@H](C(=O)N[C@@H](C)C(=O)N[C@@H](C)C(=O)N[C@@H](CCCCN)C(=O)N[C@@H](CCCCN)C(=O)N[C@@H](Cc1ccc(O)cc1)C(=O)N[C@@H](CC(C)C)C(=O)N[C@@H](CCC(N)=O)C(=O)N[C@@H](CO)C(=O)N[C@H](C(=O)N[C@@H](CCCCN)C(=O)N[C@@H](CC(N)=O)C(=O)NCC(=O)N[C@@H](CCCNC(=N)N)C(=O)N1CCC[C@H]1C(=O)N[C@@H](CO)C(=O)N[C@@H](CO)C(=O)NCC(=O)N[C@@H](C)C(=O)N1CCC[C@H]1C(=O)N1CCC[C@H]1C(=O)N1CCC[C@H]1C(=O)N[C@@H](CO)C(=O)O)[C@@H](C)CC)C(C)C)[C@@H](C)O)[C@@H](C)O)C(C)C [Agonist P271] (Hexanoyl-HSDAVFTDNYTRLRKQVAAKKYLQSIKNGRPSSGAPPPS-OH; C-terminus assumed) | 352 | 0.14 | 67.6 | 0.12 |  |  | 
5 | Hexanoyl-HSDAVFTDNYTRLRKQVAAKKYLQSIKNKRGGPSSGAPPPS [Agonist P123] | 265 | 0.26 | 166 | 0.12 |  |  | 
6 | Hexanoyl-HSDAVFTDNYTRLRKQVAAKKYLQLIKNKRYGGPSSGAPPPS [Agonist P114] | 188 | 0.56 | 171 | 0.14 |  |  | 
7 | Hexanoyl-HSDAVFTDNYTRLRKQVAAKKYLQSIKNKKGGPSSGAPPPS [Agonist P121] | 253 | 0.19 | 169 | 0.1 |  |  | 
8 | HSDAVFTDNYTREKEKVAAKKYLQSIKNKRYGGPSSGAPPPS [Agonist P87] |  | 1110 | 636 | > 10000 |  |  | 
9 | CCCCCC(=O)N[C@@H](Cc1c[nH]cn1)C(=O)N[C@@H](CO)C(=O)N[C@@H](CC(=O)O)C(=O)N[C@@H](C)C(=O)N[C@H](C(=O)N[C@@H](Cc1ccccc1)C(=O)N[C@H](C(=O)N[C@@H](CC(=O)O)C(=O)N[C@@H](CC(N)=O)C(=O)N[C@@H](Cc1ccc(O)cc1)C(=O)N[C@H](C(=O)N[C@@H](CCCNC(=N)N)C(=O)N[C@@H](CC(C)C)C(=O)N[C@@H](CCCNC(=N)N)C(=O)N[C@@H](CCCCN)C(=O)N[C@@H](CCC(N)=O)C(=O)NC(C)(C)C(=O)N[C@@H](C)C(=O)N[C@@H](C)C(=O)N[C@@H](CCCCN)C(=O)N[C@@H](CCCCN)C(=O)N[C@@H](Cc1ccc(O)cc1)C(=O)N[C@@H](CC(C)C)C(=O)N[C@@H](CCC(N)=O)C(=O)N[C@@H](CO)C(=O)N[C@H](C(=O)N[C@@H](CCCCN)C(=O)N[C@@H](CC(N)=O)C(=O)N[C@@H](CCCCN)C(=O)N[C@@H](CCCNC(=N)N)C(=O)N[C@@H](Cc1ccc(O)cc1)C(=O)NCC(=O)NCC(=O)N1CCC[C@H]1C(=O)N[C@@H](CO)C(=O)N[C@@H](CO)C(=O)NCC(=O)N[C@@H](C)C(=O)N1CCC[C@H]1C(=O)N1CCC[C@H]1C(=O)N1CCC[C@H]1C(=O)N[C@@H](CO)C(=O)O)[C@@H](C)CC)[C@@H](C)O)[C@@H](C)O)C(C)C [Agonist P189] | 303 | 0.2 | 6.87 |  |  |  | 
10 | Hexanoyl-HSDAVFTLNYTRLRKQVAAKKYLQSIKNKRYGGPSSGAPPPS [Agonist P161] | 4260 | 6.61 | 119 |  |  |  | 
11 | Hexanoyl-HSDAVFTDNYTRLRKQVAAKKVLQSIKNKRYGGPSSGAPPPS [Agonist P134] | 479 | 2.13 | 833 |  |  |  | 
12 | Hexanoyl-HHSDAVFTDNYTRLLAKLALQKYLQSIKNKRYGGPSSGAPPPS [Agonist P191] | > 25000 | 60.6 | 1280 |  |  |  | 
13 | Hexanoyl-HSDAVFTDNYTRLRKQVAAKKLLQSIKNKRYGGPSSGAPPPS [Agonist P132] | 1020 | 1.51 | 617 |  |  |  | 
14 | [Met(O)]HSDAVFTDNYTRLRKQVAAKKYLQSIKNKRYGGPSSGAPPPS [Agonist P199] |  |  |  |  | 244 | 8.26 | 429
15 | H-HSDGVFTDNYTRLRKQVAAKKYLQSIKNKRYGGPSSGAPPPS [Agonist P102] |  |  |  |  | 55 | 15.4 | 184
16 | Hexanoyl-HSDAVFTDNYTRLRKQVAAKKTLQSIKNKRYGGPSSGAPPPS [Agonist P131] | 632 | 5.67 | 1370 |  |  |  | 
17 | Hexanoyl-HSDAVFTRNYTRLRKQVAAKKYLQSIKNKRYGGPSSGAPPPS [Agonist P162] | 186 | 3.72 | 5.14 |  |  |  | 
